Assays:
Assay type in all cases: in vivo, human
[1] = Plasma pharmacokinetics after single oral dose (clinical study Part A)
Procedure: Part A: The study was a double-blind, randomized, single ascending doses, study in 24 healthy elderly male and female volunteers. Each subject was randomized for two subsequent doses in three cohorts. Part A: Single oral dose administration on D1 of each period according to the randomisation. The administration took place around 8:00 am with around 200 mL tap water, in sitting position, and under fasting conditions. Cohort 1 (8 subjects): 250 mg urolithin A (6 subjects) or placebo (2 subjects) capsule soft gel formulation then 2000 mg urolithin A or placebo capsule soft gel formulation. Cohort 3 (8 subjects): 1000 mg urolithin A (6 subjects) or placebo (2 subjects) capsule soft gel formulation. After single dosing: Cmax, tmax, AUC0-t, AUC0-∞, t1/2 From the plasma concentration-time data, the following pharmacokinetic parameters will be determined, as data permit using non-compartmental methods: maximum observed plasma concentration (Cmax) (ng/mL), time at which maximum observed plasma concentration (tmax) (h), area under the plasma concentration-time curve AUC(0-24h) (ng/mL*h) and AUC(0-∞) (ng/mL*h), and apparent terminal phase half-life (t1/2) (h). Blood sampling was performed for urolithin A concentration measurements at the exact timepoints with an authorised time window described in the table below: At each time point indicated in the table, a 6 mL blood sample was drawn into K2-EDTA coated tube. The blood samples were gently inverted a few times for complete mixing with the anticoagulant. The exact time of sample collection was recorded on the eCRF. Within 30 minutes following blood collection, each blood sample was centrifuged at 1500 g for 10 minutes at 4° C. From the plasma concentration-time data, the following pharmacokinetic parameters were determined, as data permit using non-compartmental methods: maximum observed plasma concentration (Cmax), time at which maximum observed plasma concentration (tmax), area under the plasma concentration-time curve AUC(0-24h) and AUC(0-∞), and apparent terminal phase half-life (t1/2).

[2] = Plasma pharmacokinetics after 28 day daily oral dosing (clinical study Part B)
Procedure: Part B: The study was a double-blinded, randomized, multiple ascending dose study in 36 healthy elderly male and female volunteers. Each subject was randomised to receive study product or placebo for 28 days. Part B: Repeated oral dose administration from day 1 to day 28 according to the randomization. The administration took place around 8:00 am with around 200 mL tap water, in a sitting position, and under fasting conditions. Cohort 3 (12 subjects): 1000 mg urolithin A (9 subjects) or placebo (3 subjects) soft gel capsule formulation for 28 days. After multiple dosing: Cmax, tmax, AUC0-24h, t1/2 From the plasma concentration-time data, the following pharmacokinetic parameters will be determined, as data permit using non-compartmental methods: maximum observed plasma concentration (Cmax) (ng/mL), time at which maximum observed plasma concentration (tmax) (h), area under the plasma concentration-time curve AUC(0-24h) (ng/mL*h) and AUC(0-∞) (ng/mL*h), and apparent terminal phase half-life (t1/2) (h). Blood sampling was performed for urolithin A concentration measurements at the exact timepoints with an authorised time window described in the table below: At each time point indicated in the table, a 6 mL blood sample was drawn into K2-EDTA coated tube. The blood samples were gently inverted a few times for complete mixing with the anticoagulant. The exact time of sample collection was recorded on the eCRF. Within 30 minutes following blood collection, each blood sample was centrifuged at 1500 g for 10 minutes at 4° C. From the plasma concentration-time data, the following pharmacokinetic parameters were determined, as data permit using non-compartmental methods: maximum observed plasma concentration (Cmax), time at which maximum observed plasma concentration (tmax), area under the plasma concentration-time curve AUC(0-24h) and AUC(0-∞), and apparent terminal phase half-life (t1/2).

[3] = test system: mitochondrial content per cell in muscle tissue; assay: Mitochondrial DNA copies per cell in muscle tissue; conditions: 1000 mg per day for 28 days compared with placebo
Procedure: Muscle biopsies were collected on Day −1 and Day 28 at pre-dose under fasted state using the Bergström biopsy needle technique. The minimal amount of each muscle tissue sample was approximately 50 mg. One third of the tissue was used for gene expression (≈50 mg), and was further divided into two equal portions: one portion for RNA analysis (≈25 mg) and one portion for DNA analysis (≈25 mg), both in a Safe-lock Tubes 2.0 ml, Eppendorf (part no. 0030.120.094). Muscle tissue was snap frozen using liquid nitrogen immediately after collection and further, long term storage will be in a −80° C. freezer. The mRNA was analysed by microarray. Quantification of mtDNA over nuclear DNA provided another measure of mitochondrial abundance. The shipment was done in dry ice by specialized carrier. Temperatures were monitored using data logger during all transport. Increasing mitochondrial content per cell in muscle tissue was also observed following dosage of 1000 mg urolithin A per day for 28 days compared with placebo.

plasma acylcarnitines = assay: Plasma metabolomics: acylcarnitine plasma levels
Procedure: Blood sampling was performed for analysis on plasma at the exact time-points described in the table below: Blood handling procedures: at each time point indicated in the table, a 6 mL blood sample was drawn into K2-EDTA coated tube. The blood samples were gently inverted a few times for complete mixing with the anticoagulant. The exact time of sample collection was recorded on the eCRF. Within 30 minutes following blood collection, each blood sample was centrifuged at 1500 g for 10 minutes at 4° C. 30 minutes after the centrifugation, the top layer of human plasma was transferred into 2 pre-labelled polypropylene tubes, containing approximately 1500 μL of plasma. Blood cells were not transferred. All sample tubes were clearly and appropriately labelled. Tubes were capped immediately from each time point and the plasma was be frozen in an upright position at approximately −80° C. for storage. […] Proprietary software was used to match ions to an in-house library of standards for metabolite identification and for metabolite quantitation by peak area integration. A total of 781 metabolites were quantified. […] The grey line in FIG. 11 corresponds to a fold change of 1, i.e. absence of effect. *P<0.05 correspond to a significant effect from D-1 (pre-dose) to D28, calculated after a repeated measures ANOVA. […]

O=c1oc2cc(O)ccc2c2ccc(O)cc12 [Urolithin A]
plasma levels of urolithin A per mg dosed (dose-normalised Cmax and AUC) ([1]; 1000 mg dosage compared with 2000 mg dosage, single oral dose): higher plasma levels | Cmax ([1]; both sexes, human, plasma, single oral dose 1000 mg urolithin A, healthy elderly subjects): 1.92 ng/mL | AUC ([1]; both sexes, human, plasma, single oral dose 1000 mg urolithin A, healthy elderly subjects, read-out: AUC out to 36 hours): 15.8 ng·h/mL | pharmacokinetics (Cmax and AUC) at 1000 mg compared with 2000 mg ([1]; oral administration, 1000 mg vs 2000 mg dosage): higher Cmax and AUC | pharmacokinetic profile over the 28 day period (mean plasma concentrations 24 h after previous dose) ([2]; 500 mg daily dosage, days 0, 7, 14, 28, 29): stable | Cmax ([2]; both sexes, human, plasma, day 28, daily oral 1000 mg urolithin A for 28 days): 1.97 ng/mL | AUC ([2]; both sexes, human, plasma, day 28, daily oral 1000 mg urolithin A for 28 days, read-out: AUC out to 24 hours): 17.5 ng·h/mL | mitochondrial content per cell in muscle tissue (mitochondrial DNA copies per cell) [3]: Increasing | carnitine levels (plasma acylcarnitines; 28 days treatment at 1000 mg): did not change | plasma short chain up to long chain acylcarnitines (plasma acylcarnitines; after 28 days treatment at 1000 mg, day −1 to day 28): overall decrease

Reference: patent US11969408B2, “Method for improving mitophagy in subjects” (Amazentis SA, priority 2017, dated 2024)
